Publication PMC4787765 (Nucleic Acids Research, 2015)
Where two headings read alike, the source gives them in different places.

How the values were obtained:
eIF2Bα (cteIF2Bα) [1] = test: ITC; assay type: binding, Thermochaetoides thermophila
eIF2Bα (cteIF2Bα) [2] = test: ITC; assay type: binding, Thermochaetoides thermophila; remark: listed apart in the source
eIF2Bα (cteIF2Bα) [3] = test: ITC; assay type: binding, Thermochaetoides thermophila; remark: listed apart in the source
[4] = target: eIF2B(βδ)2 complex (Chaetomium thermophilum, untagged full-length subunits) (Chaetomium thermophilum); test: SEC-MALS
[5] = target: Chaetomium thermophilum eIF2Bα (Chaetomium thermophilum); test: SEC-MALS

With `Nc1ncnc2c1ncn2[C@@H]1O[C@H](COP(=O)(O)O)[C@@H](O)[C@H]1O` [AMP] the Kd (eIF2Bα (cteIF2Bα) [1]) was 10 µM.
For `Nc1ccn([C@@H]2O[C@H](COP(=O)(O)O)[C@@H](O)[C@H]2O)c(=O)n1` [CMP], the Kd (eIF2Bα (cteIF2Bα) [2]) was 65 µM.
For `Nc1nc2c(ncn2[C@@H]2O[C@H](COP(=O)(O)O)[C@@H](O)[C@H]2O)c(=O)[nH]1` [GMP], the Kd (eIF2Bα (cteIF2Bα) [3]) was 2.9 µM.
“Chaetomium thermophilum eIF2Bα (natural protein)” showed a stoichiometry N [4] of 1 and a stoichiometry N [5] of 2.
